Experiment: Evaluation of the Tmax of Hydrochlorothiazide following oral administration of hydrochlorothiazide
Type: ADME, organism-based
Details: human, in vivo, dosed compound id 30, dosed compound name HYDROCHLOROTHIAZIDE, tissue Plasma

Tmax: 2 h
SMILES: NS(=O)(=O)c1cc2c(cc1Cl)NCNS2(=O)=O [HYDROCHLOROTHIAZIDE]
